Measured values taken from the NIST ThermoML archive (doi:10.1016/j.jct.2009.11.010).
Numbers after ± are expanded uncertainties.

Tests used:
[1] = molar heat capacity at saturation pressure; details: Liquid
[2] = Liquid, Vibrating tube method

Structure (SMILES): c1ccc2nc3ccccc3cc2c1 [acridine]
- molar heat capacity ([1]; 460 K): 343.6 ± 3.4 J/K/mol
- molar heat capacity ([1]; 480 K): 352.2 ± 3.5 J/K/mol
- molar heat capacity ([1]; 500 K): 360.6 ± 3.6 J/K/mol
- molar heat capacity ([1]; 520 K): 368.7 ± 3.7 J/K/mol
- molar heat capacity ([1]; 540 K): 376.4 ± 3.7 J/K/mol
- molar heat capacity ([1]; 560 K): 383.8 ± 3.8 J/K/mol
- molar heat capacity ([1]; 580 K): 390.8 ± 3.9 J/K/mol
- molar heat capacity ([1]; 600 K): 397.3 ± 4 J/K/mol
- mass density ([2]; 423.15 K): 1064.9 ± 1.1 kg/m3
- mass density ([2]; 448.15 K): 1043.7 ± 1 kg/m3
- mass density ([2]; 473.15 K): 1023.9 ± 1 kg/m3
- mass density ([2]; 498.15 K): 1005.1 ± 1 kg/m3
- mass density ([2]; 523.15 K): 985.4 ± 1 kg/m3
- mass density ([2]; 548.15 K): 964.8 ± 1 kg/m3
